Numbered stars: 1 amine (or outer) side, 2 acyl side, 3 side chain; on linkers, the order of the positions; unused ones are H or OH. Square brackets hold non-standard residues; d marks the D form. Primed or numbered codes have the meaning given here. Side chains are listed from the residue outwards. Ends that are not written are not given here. * marks the point of attachment. C18 diacid = O=C(O)CCCCCCCCCCCCCCCCC(=O)*; γGlu = O=C(O)[C@H](CCC(=O)[*:2])N[*:1]; Palmitoyl = CCCCCCCCCCCCCCCC(=O)*; Nle = CCCC[C@H](N)C(=O)O; PEG2′ = not defined here; Aib = CC(C)(N)C(=O)O

The test system of test [1] is human hepatic stellate cells (LX-2). Description: In vitro inhibition of hepatic fibrosis: expression of activation marker α-SMA in LX-2 cells (Western Blot, β-actin internal reference). Format: cell-based. The note with it: 10.0 μM, 48 hours, negative control (PBS) = 100%. The procedure, abridged:
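LX-2 cells grown in DMEM high glucose + 10% FBS to ~70% confluence, then exposed to polypeptides (in PBS) at different doses for 48 h; PBS-only negative control. α-SMA quantified by Western blot densitometry normalised to β-actin, expressed relative to control set at 100%.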
A general note: Immunoblotting shows a protein as a band on a membrane.

Test [2] deals with BDL-induced cholestasis hepatic fibrosis in rats. Briefly: Bile duct ligation (BDL)-induced hepatic fibrosis in rats (biliary cirrhosis rat model). To be noted: 50 μg/kg subcutaneous every two days, 14 days. Format: in vivo, SD rats. As for the experimental part: 1. Experimental Drugs: polypeptide compounds 3, 6, 7, 10, 17, 20, 37, 38, 39, 40, 44, 46, Obeticholic Acid (Abbr. OCA, CAS:459789-99-2, purchased from Zhejiang Warrant Pharmaceutical Co., Ltd.) and Liraglutide. Saving condition was −20° C.
128 male SD rats with body weight of 200-230 g were randomly divided into sixteen groups, which were respectively:
SD rats with body weight of 200-230 g at SPF level were provided by Lanzhou University Laboratory Animal Center. After rats were quarantined in the room (SPF environment) for one week, model rat and rat in sham-operated group were subject to intraperitoneal injection and anesthesia with 0.6% pentobarbital sodium solution, and operation was performed on a super clean bench after anesthesia. Bilateral ligation was conducted on model rat after the common bile duct was separated, and ligation was not conducted on rat in sham-operated group, but only the common bile duct was separated. Administration was started from the next day of the operation.
Administration was started from the first day of the operation, and subcutaneous injection of compounds 3, 6, 7, 10, 17, 20, 37, 38, 39, 40, 44, 46 and Liraglutide with 50 μg/kg was performed every two days; intraperitoneal injection for the Obeticholic Acid administration group with 7.5 mg/kg was performed every day; as for the normal saline group, injection was performed every day. During the administration, changes in vital signs of rats were observed every day.
After the end of two weeks of administration cycle (14 days), the rats were killed to collect materials for subsequent biological determination experiments. The livers were taken out for HE dye, Sirius Red dye and IHC dye. Image-pro plus and Graph pad software were used for statistics.

“His-(D-Ser)-Gln-Gly-Thr-Phe-Thr-Ser-Asp-Tyr-Ser-Lys-Tyr-Leu-Asp-Aib-Lys(PEG2-PEG2-γGlu-CO(CH2)16CO2H)-Arg-Ala-Gln-Asp-Phe-Val-Gln-Trp-Leu-Met-Asn-Thr-Gly-Gly-Pro-Ser-Ser-Gly-Ala-Pro-Pro-Pro-Ser-NH2 (H[dS]QGTFTSDYSKYLD[Aib]K([PEG2′-PEG2′-γGlu-C18 diacid])RAQDFVQWLMNTGGPSSGAPPPS-NH2) [Compound 7]”: the “Relative expression of α-SMA (α-SMA/β-actin, %)” value in test [1] was 40.52%. In test [2], the “ALT in the serum (FIG. 6)” value is recorded as “significantly inhibit”; the “BDL-induced hepatic fibrosis and inflammation (HE, Sirius Red, IHC sections)” value is “significantly reduce”; the “collagenous fiber deposition in liver (Sirius Red dyed sections, FIGS. 2, 4)” value (from here on “collagenous fiber deposition in liver”) was “significantly inhibit”; the “content of hydroxyproline of the liver (FIG. 7)” value (“content” below) is listed as “significantly inhibit”. For the same substance, the “α-SMA in liver (IHC dyed sections, FIGS. 3, 5)” value (from here on “α-SMA in liver”) in test [2] was “significantly inhibit”.
Regarding “His-(D-Ser)-Gln-Gly-Thr-Phe-Thr-Ser-Asp-Tyr-Ser-Lys-Tyr-Leu-Asp-Aib-Lys(PEG2-PEG2-CO(CH2)16CO2H)-Arg-Ala-Gln-Asp-Phe-Val-Gln-Trp-Leu-Met-Asn-Thr-Gly-Gly-Pro-Ser-Ser-Gly-Ala-Pro-Pro-Pro-Ser-NH2 (H[dS]QGTFTSDYSKYLD[Aib]K([PEG2′-PEG2′-C18 diacid])RAQDFVQWLMNTGGPSSGAPPPS-NH2) [Compound 10]”, the “Relative expression of α-SMA (α-SMA/β-actin, %)” value in test [1] was 39.49%. Also, in test [2], the “ALT in the serum (FIG. 6)” value was “significantly inhibit”; the “BDL-induced hepatic fibrosis and inflammation (HE, Sirius Red, IHC sections)” value is listed as “significantly reduce”; the “collagenous fiber deposition in liver” value is “significantly inhibit”; the “content” value is “significantly inhibit”. Also, the “α-SMA in liver” value in test [2] was “significantly inhibit”.
On to “His-(D-Ser)-Gln-Gly-Thr-Phe-Thr-Ser-Asp-Tyr-Ser-Lys(PEG2-PEG2-γGlu-CO(CH2)16CO2H)-Lys-Leu-Asp-Aib-Arg-Arg-Ala-Gln-Asp-Phe-Val-Gln-Trp-Leu-Met-Asn-Thr-Gly-Gly-Pro-Ser-Ser-Gly-Ala-Pro-Pro-Pro-Ser-NH2 (H[dS]QGTFTSDYSK([PEG2′-PEG2′-γGlu-C18 diacid])KLD[Aib]RRAQDFVQWLMNTGGPSSGAPPPS-NH2) [Compound 20]”, for which the “Relative expression of α-SMA (α-SMA/β-actin, %)” value in test [1] is 28.39%. In test [2], the “ALT in the serum (FIG. 6)” value was “significantly inhibit”; the “BDL-induced hepatic fibrosis and inflammation (HE, Sirius Red, IHC sections)” value is “significantly reduce”; the “collagenous fiber deposition in liver” value was “significantly inhibit”; the “content” value is “significantly inhibit”. Further, in test [2], the “α-SMA in liver” value was “significantly inhibit”.
For the substance “His-(D-Ser)-Gln-Gly-Thr-Phe-Thr-Ser-Asp-Tyr-Ser-Lys-Tyr-Leu-Asp-Lys(PEG2-PEG2-γGlu-CO(CH2)14CH3)-Arg-Arg-Ala-Gln-Asp-Phe-Val-Gln-Trp-Leu-Leu-Asn-Thr-Gly-Gly-Pro-Ser-Ser-Gly-Ala-Pro-Pro-Pro-Ser-NH2 (H[dS]QGTFTSDYSKYLDK([PEG2′-PEG2′-γGlu-Palmitoyl])RRAQDFVQWLLNTGGPSSGAPPPS-NH2) [Compound 40]”, the “Relative expression of α-SMA (α-SMA/β-actin, %)” value in test [1] is 37.55%. Also, in test [2], the “ALT in the serum (FIG. 6)” value is reported as “significantly inhibit”; the “BDL-induced hepatic fibrosis and inflammation (HE, Sirius Red, IHC sections)” value is on record as “significantly reduce”; the “collagenous fiber deposition in liver” value was “significantly inhibit”; the “content” value is recorded as “significantly inhibit”. For the same substance, in test [2], the “α-SMA in liver” value is recorded as “significantly inhibit”.
On to “His-(D-Ser)-Gln-Gly-Thr-Phe-Thr-Ser-Asp-Lys(PEG2-PEG2-CO(CH2)16CO2H-Ser-Lys-Tyr-Leu-Asp-Aib-Arg-Arg-Ala-Gln-Asp-Phe-Val-Gln-Trp-Leu-Nle-Asn-Thr-Gly-Gly-Pro-Ser-Ser-Gly-Ala-Pro-Pro-Pro-Ser-NH2 (H[dS]QGTFTSDK([PEG2′-PEG2′-C18 diacid])SKYLD[Aib]RRAQDFVQWL[Nle]NTGGPSSGAPPPS-NH2) [Compound 46]”, for which the “Relative expression of α-SMA (α-SMA/β-actin, %)” value in test [1] amounted to 36.84%. Moreover, in test [2], the “ALT in the serum (FIG. 6)” value is on record as “significantly inhibit”; the “BDL-induced hepatic fibrosis and inflammation (HE, Sirius Red, IHC sections)” value is recorded as “significantly reduce”; the “collagenous fiber deposition in liver” value is “significantly inhibit”; the “content” value is given as “significantly inhibit”. Moreover, the “α-SMA in liver” value in test [2] is listed as “significantly inhibit”.
As for “His-(D-Ser)-Gln-Gly-Thr-Phe-Thr-Ser-Asp-Tyr-Ser-Lys-Tyr-Leu-Asp-Lys(PEG2-PEG2-γGlu-CO(CH2)14CH3)-Arg-Arg-Ala-Gln-Asp-Phe-Val-Gln-Trp-Leu-Nle-Asn-Thr-Gly-Gly-Pro-Ser-Ser-Gly-Ala-Pro-Pro-Pro-Ser-NH2 (H[dS]QGTFTSDYSKYLDK([PEG2′-PEG2′-γGlu-Palmitoyl])RRAQDFVQWL[Nle]NTGGPSSGAPPPS-NH2) [Compound 37]”, in test [1], the “Relative expression of α-SMA (α-SMA/β-actin, %)” value is given as 29.95%. In addition, in test [2], the “ALT in the serum (FIG. 6)” value is “significantly inhibit”; the “BDL-induced hepatic fibrosis and inflammation (HE, Sirius Red, IHC sections)” value is recorded as “significantly reduce”; the “collagenous fiber deposition in liver” value is reported as “significantly inhibit”; the “content” value was “significantly inhibit”. Besides, in test [2], the “α-SMA in liver” value was “significantly inhibit”.
Consider “His-(D-Ser)-Gln-Gly-Thr-Phe-Thr-Ser-Asp-Tyr-Ser-Lys-Tyr-Leu-Asp-Lys(PEG2-PEG2-γGlu-CO(CH2)16CO2H)-Arg-Arg-Ala-Gln-Asp-Phe-Val-Gln-Trp-Leu-Nle-Asn-Thr-Gly-Gly-Pro-Ser-Ser-Gly-Ala-Pro-Pro-Pro-Ser-NH2 (H[dS]QGTFTSDYSKYLDK([PEG2′-PEG2′-γGlu-C18 diacid])RRAQDFVQWL[Nle]NTGGPSSGAPPPS-NH2) [Compound 38]”, for which, in test [1], the “Relative expression of α-SMA (α-SMA/β-actin, %)” value was 40.55%. In test [2], the “ALT in the serum (FIG. 6)” value was “significantly inhibit”; the “BDL-induced hepatic fibrosis and inflammation (HE, Sirius Red, IHC sections)” value is given as “significantly reduce”; the “collagenous fiber deposition in liver” value was “significantly inhibit”; the “content” value was “significantly inhibit”. Further, in test [2], the “α-SMA in liver” value is reported as “significantly inhibit”.
For “His-(D-Ser)-Gln-Gly-Thr-Phe-Thr-Ser-Asp-Tyr-Ser-Lys-Tyr-Leu-Asp-Lys(PEG2-PEG2-γGlu-CO(CH2)16CO2H)-Arg-Arg-Ala-Gln-Asp-Phe-Val-Gln-Trp-Leu-Leu-Asn-Thr-Gly-Gly-Pro-Ser-Ser-Gly-Ala-Pro-Pro-Pro-Ser-NH2 (H[dS]QGTFTSDYSKYLDK([PEG2′-PEG2′-γGlu-C18 diacid])RRAQDFVQWLLNTGGPSSGAPPPS-NH2) [Compound 39]”, the “Relative expression of α-SMA (α-SMA/β-actin, %)” value in test [1] was found to be 41.68%. In test [2], the “ALT in the serum (FIG. 6)” value is “significantly inhibit”; the “BDL-induced hepatic fibrosis and inflammation (HE, Sirius Red, IHC sections)” value is “significantly reduce”; the “collagenous fiber deposition in liver” value is recorded as “significantly inhibit”; the “content” value is recorded as “significantly inhibit”. In test [2], the “α-SMA in liver” value was “significantly inhibit”.
